Test results taken from patent US6855730B2, “3-methylidenyl-2-indolinone modulators of protein kinase” (Sugen, Inc., priority 1998, dated 2005).

Tests used:
PDGFR-β = target: T1, PDGFR-β (Homo sapiens, UniProt P09619); test: Biochemical PDGFR assay (ELISA, PDGFR-β expressing NIH 3T3 cell lysate); conditions: read-out: bio PDGF IC50
T1 construct: host or cells: NIH 3T3
How it was run: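 PDGFR-β from NIH 3T3 cell lysate captured on anti-PDGFR (28D4C10)-coated plates; compound preincubated 30 min, then 20 μM ATP kinase reaction 30 min at room temperature, stopped with EDTA. Phosphotyrosine detected by anti-phosphotyrosine antibody, peroxidase conjugate and ABTS/H2O2, read at 410 nm.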

[1] = target: Myc-GyrB-FGFR fusion protein (Homo sapiens, UniProt P11362); test: Biochemical FGFR assay (ELISA); conditions: read-out: bio fgfR1 IC50
Sequence of Myc-GyrB-FGFR fusion protein (P11362 478-767 limits assumed): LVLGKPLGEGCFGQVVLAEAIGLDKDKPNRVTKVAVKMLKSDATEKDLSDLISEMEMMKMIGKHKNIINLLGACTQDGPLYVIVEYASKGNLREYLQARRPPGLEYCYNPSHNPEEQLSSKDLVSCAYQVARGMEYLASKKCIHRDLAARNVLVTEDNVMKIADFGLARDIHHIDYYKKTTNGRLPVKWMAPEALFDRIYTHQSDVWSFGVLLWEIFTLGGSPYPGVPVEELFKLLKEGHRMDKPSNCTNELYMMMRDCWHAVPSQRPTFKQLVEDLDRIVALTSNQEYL

T1 sequence (P09619 33-1106): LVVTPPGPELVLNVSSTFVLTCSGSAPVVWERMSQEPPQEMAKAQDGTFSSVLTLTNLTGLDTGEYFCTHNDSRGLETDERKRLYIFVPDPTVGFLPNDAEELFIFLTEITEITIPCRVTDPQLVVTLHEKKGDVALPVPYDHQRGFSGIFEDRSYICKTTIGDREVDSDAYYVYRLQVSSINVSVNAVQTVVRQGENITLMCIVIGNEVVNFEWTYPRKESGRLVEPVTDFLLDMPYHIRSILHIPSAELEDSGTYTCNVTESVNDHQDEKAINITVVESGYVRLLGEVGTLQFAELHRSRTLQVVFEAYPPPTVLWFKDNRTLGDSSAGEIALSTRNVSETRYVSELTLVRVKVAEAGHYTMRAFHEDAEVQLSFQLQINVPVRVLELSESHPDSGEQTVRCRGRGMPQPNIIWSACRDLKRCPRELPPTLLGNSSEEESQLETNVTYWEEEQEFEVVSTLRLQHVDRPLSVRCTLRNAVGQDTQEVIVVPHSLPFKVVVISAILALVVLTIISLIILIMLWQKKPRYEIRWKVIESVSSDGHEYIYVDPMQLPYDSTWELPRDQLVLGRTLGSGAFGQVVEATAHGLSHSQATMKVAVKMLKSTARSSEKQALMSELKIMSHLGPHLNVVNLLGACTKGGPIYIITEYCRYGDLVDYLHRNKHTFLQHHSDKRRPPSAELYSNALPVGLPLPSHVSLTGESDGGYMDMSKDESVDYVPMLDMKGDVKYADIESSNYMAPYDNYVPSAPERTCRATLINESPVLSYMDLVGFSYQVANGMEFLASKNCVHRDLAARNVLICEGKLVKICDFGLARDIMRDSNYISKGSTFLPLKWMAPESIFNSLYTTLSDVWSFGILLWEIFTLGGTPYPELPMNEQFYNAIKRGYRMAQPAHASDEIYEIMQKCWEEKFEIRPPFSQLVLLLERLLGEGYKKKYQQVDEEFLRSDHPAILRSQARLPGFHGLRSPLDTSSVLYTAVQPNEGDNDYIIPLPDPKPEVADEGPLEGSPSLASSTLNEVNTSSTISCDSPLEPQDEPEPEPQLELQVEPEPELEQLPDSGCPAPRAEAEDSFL

SMILES	IC50 (PDGFR-β) [nM]	IC50 [1] [nM]
CCOC(=O)c1c(C)[nH]c(/C=C2\C(=O)Nc3ccc(Br)cc32)c1CCC(=O)O [Compound 114, 5-(5-Bromo-2-oxo-1,2-dihydroindol-3-ylidenemethyl)-4-(2-carboxyethyl)-2-methyl-1H-pyrrole-3-carboxylic acid ethyl ester]	50	4260
Cc1cc(CCC(=O)O)c(/C=C2\C(=O)Nc3ccc(Br)cc32)[nH]1 [Compound 116, 3-[2-(5-Bromo-2-oxo-1,2-dihydroindol-3-ylidenemethyl)-5-methyl-1H-pyrrol-3-yl]-propionic acid]	20	290
COc1c(C(C)C)cc(/C=C2/C(=O)Nc3ccccc32)cc1C(C)C [Example 1, 3-(3,5-Diisopropyl-4-methoxybenzylidene)-1,3-dihydroindol-2-one]	> 100000	
COc1c(C(C)C)cc(/C=C2/C(=O)Nc3ccc(Cl)cc32)cc1C(C)C [Example 2, 5-Chloro-3-(3,5-diisopropyl-4-methoxybenzylidene)-1,3-dihydroindol-2-one]	> 100000	
O=C1Nc2ccc(N=Cc3cc4ccccc4[nH]3)cc2C1=Cc1cc2ccccc2[nH]1 [Example 171, 3-(1H-indol-2-ylmethylene)-5-[(1H-indol-2-ylmethylene)-amino]-1,3-dihydroindol-2-one]	68600	> 20000
O=C(CCc1c(/C=C2\C(=O)Nc3ccccc32)[nH]c2c1CCCC2)NCCN1CCOCC1 [Example 202, N-(2-Morpholin-4-ylethyl)-3-[2-(2-oxo-1,2-dihydroindol-3-ylidenemethyl)-4,5,6,7-tetrahydro-1H-indol-3-yl]-propionamide]	9580	
O=C(O)CCc1c(/C=C2\C(=O)Nc3ncccc32)[nH]c2c1CCCC2 [Example 203, 3-[2-(2-Oxo-1,2-dihydropyrrolo[2,3-b]pyridin-3-ylidenemethyl)-4,5,6,7-tetrahydro-1H-indol-3-yl]-propionic acid]	150	2270
COc1cccc(-c2ccc3c(c2)NC(=O)/C3=C\c2[nH]c3c(c2CCC(=O)O)CCCC3)c1 [Example 204, 3-{2-[6-(3-Methoxyphenyl)-2-oxo-1,2-dihydro-indol-3-ylidenemethyl]-4,5,6,7-tetrahydro-1H-indol-3-yl}-propionic acid]	680	590
COc1ccc(-c2ccc3c(c2)NC(=O)/C3=C\c2[nH]c3c(c2CCC(=O)O)CCCC3)cc1 [Example 205, 3-{2-[6-(4-Methoxyphenyl)-2-oxo-1,2-dihydro-indol-3-ylidenemethyl]-4,5,6,7-tetrahydro-1H-indol-3-yl}-propionic acid]	5430	2020
O=C(O)CCc1c(/C=C2\C(=O)Nc3cc(-c4ccccc4)ccc32)[nH]c2c1CCCC2 [Example 206, 3-[2-(2-oxo-6-phenyl-1,2-dihydroindol-3-ylidenemethyl)-4,5,6,7-tetrahydro-1H-indol-3-yl]-propionic acid]	40	1180
O=C(O)CCc1ccccc1/C=C1/C(=O)Nc2ccccc21 [Example 214, 3-[2-(2-Oxo-1,2-dihydroindol-3-ylidenemethyl)-phenyl]-propionic acid]	> 100000	30200
COc1ccc2c(c1)/C(=C/c1[nH]cc(C)c1CCC(=O)O)C(=O)N2 [Example 222, 3-[2-(5-Methoxy-2-oxo-1,2-dihydroindol-3-ylidenemethyl)-4-methyl-1H-pyrrol-3-yl]-propionic acid]	3750	
COc1cccc(-c2ccc3c(c2)NC(=O)/C3=C\c2[nH]cc(C)c2CCC(=O)O)c1 [Example 223, 3-{2-[6-(3-Methoxyphenyl)-2-oxo-1,2-dihydro-indol-3-ylidenemethyl]-4-methyl-1H-pyrrol-3-yl}-propionic acid]	781	1220
CCOc1cccc(-c2ccc3c(c2)NC(=O)/C3=C\c2[nH]cc(C)c2CCC(=O)O)c1 [Example 224, 3-{2-[6-(3-Ethoxyphenyl)-2-oxo-1,2-dihydro-indol-3-ylidenemethyl]-4-methyl-1H-pyrrol-3-yl}-propionic acid]	2380	4240
